Columns and labels:
Details in all cases: 48 h
NOMO1 [1] = experiment: cell viability relative to DMSO control; higher = less cytotoxic
Method in brief: (§1)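 In 1536-well plates, 5 μl of leukemia cells were seeded per well: 500 cells/well for NOMO1 or SEM and 1000 cells/well for P12-Ichikawa. Each line had first been adapted for at least four passages in each medium. Library compounds in DMSO were pin-dosed at 11 threefold concentrations between 47 μM and 0.79 nM, and CellTiter-Glo One luminescence was read after 48 h at 37°C. Viability is a per-plate percentage relative to DMSO wells, with cell-free wells as background.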

P12-Ichikawa [2] = experiment: as above
Method in brief: as §1

SEM cells [3] = experiment: as above
Method in brief: as §1

NOMO1 [4] = experiment: AUC of viability dose-response curve (% viability x log10 dose units); higher = less sensitive
Method in brief: (§2)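 Area under the curve was integrated by trapezoidal rule from a log-logistic fit of normalised viability, with curves exceeding full viability scaled and quality-control failures removed. The fit had four parameters over log10 doses. Viability came from CellTiter-Glo One luminescence, normalised per plate to DMSO and cell-free wells, after leukemia cells adapted to each medium (500 or 1000 cells/well, 1536-well plates) were exposed to library compounds in DMSO for 48 h at 37°C. The 11 threefold doses ran from 47 μM to 0.79 nM.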

P12-Ichikawa [5] = experiment: as above
Method in brief: as §2

SEM cells [6] = experiment: as above
Method in brief: as §2

CC1=C(/C=C/C(C)=C/C=C/C(C)=C/C(=O)Nc2ccc(O)cc2)C(C)(C)CCC1
cell viability [%]
Details	NOMO1 [1]	P12-Ichikawa [2]	SEM cells [3]
HPLM + 10% dialyzed FBS, 0.000781 µM	63.6	85.1	84.5
HPLM + 10% dialyzed FBS, 0.00234 µM	82.3	83.4	77.4
HPLM + 10% dialyzed FBS, 0.00702 µM	97.9	85.5	81.4
HPLM + 10% dialyzed FBS, 0.0211 µM	102	96.1	104
HPLM + 10% dialyzed FBS, 0.0632 µM	87.5	90.8	86.9
HPLM + 10% dialyzed FBS, 0.19 µM	81.5	91.8	83.9
HPLM + 10% dialyzed FBS, 0.569 µM	94.6	93.8	85.1
HPLM + 10% dialyzed FBS, 1.71 µM	80.6	68.5	42.5
HPLM + 10% dialyzed FBS, 5.12 µM	53.6	23.7	23.1
HPLM + 10% dialyzed FBS, 15.4 µM	25.9	8.54	5.89
HPLM + 10% dialyzed FBS, 46.1 µM	4.95	3.66	3.35
RPMI 5 mM glucose + 10% FBS, 0.000781 µM	72.4	82	85
RPMI 5 mM glucose + 10% FBS, 0.00234 µM	85.1	88.8	85.5
RPMI 5 mM glucose + 10% FBS, 0.00702 µM	74.5	83	92.2
RPMI 5 mM glucose + 10% FBS, 0.0211 µM	96.5	91.8	96.9
RPMI 5 mM glucose + 10% FBS, 0.0632 µM	91	86.3	81.4
RPMI 5 mM glucose + 10% FBS, 0.19 µM	79.9	81.9	88.6
RPMI 5 mM glucose + 10% FBS, 0.569 µM	95	87	83
RPMI 5 mM glucose + 10% FBS, 1.71 µM	78.8	57.9	65
RPMI 5 mM glucose + 10% FBS, 5.12 µM	63	28.5	30.7
RPMI 5 mM glucose + 10% FBS, 15.4 µM	34	7.98	9.06
RPMI 5 mM glucose + 10% FBS, 46.1 µM	4.45	1.15	3.24
RPMI 5 mM glucose + 10% dialyzed FBS, 0.000781 µM	78	83.3	76.8
RPMI 5 mM glucose + 10% dialyzed FBS, 0.00234 µM	76.4	85.9	71.5
RPMI 5 mM glucose + 10% dialyzed FBS, 0.00702 µM	77.8	84	80.1
RPMI 5 mM glucose + 10% dialyzed FBS, 0.0211 µM	92.9	84.8	85.3
RPMI 5 mM glucose + 10% dialyzed FBS, 0.0632 µM	90.9	83.4	76.6
RPMI 5 mM glucose + 10% dialyzed FBS, 0.19 µM	89.7	81.5	80.8
RPMI 5 mM glucose + 10% dialyzed FBS, 0.569 µM	86	83.3	82.2
RPMI 5 mM glucose + 10% dialyzed FBS, 1.71 µM	85.5	23.8	37.5
RPMI 5 mM glucose + 10% dialyzed FBS, 5.12 µM	55.8	6.39	20
RPMI 5 mM glucose + 10% dialyzed FBS, 15.4 µM	23.6	4.24	4.93
RPMI 5 mM glucose + 10% dialyzed FBS, 46.1 µM	3.24	1.74	2.92

AUC of viability dose-response curve
Details	NOMO1 [4]	P12-Ichikawa [5]	SEM cells [6]
HPLM + 10% dialyzed FBS	347	326	301
RPMI 5 mM glucose + 10% FBS	348	311	322
RPMI 5 mM glucose + 10% dialyzed FBS	341	276	274

— the supplement of paper PMC11451515
